We go through seven compounds from ChEMBL document CHEMBL6153141, “Design, Synthesis, and Mechanism Study of Novel BMX Inhibitors Based on the Core of 1,3,5-Triazin-2-Amine for the Treatment of Gastric Carcinoma” (J Med Chem, 2025).

Broadly, the IC50 is the point on the concentration scale where inhibition reaches its midpoint.

For one series, the system named is PC-9. Put plainly: cells. The following applies: Homo sapiens, PC-9, 72 h.
Series [1] is described as follows: Cytotoxicity against HEK293 cells assessed as inhibition of cell proliferation incubated for 72 hrs by MTT assay. The following applies: human. In kind it is toxicity, cell-based.
In another series the test system is AGS. In words: Anticancer activity against human AGS cells assessed as inhibition of cell proliferation incubated for 72 hrs by MTT assay. In kind it is functional, cell-based.
Another series has as its system A549. In words: cells. The following applies: Homo sapiens, A549, 72 h.
For series [2], the system named is HGC-27. In words: Anticancer activity against human HGC-27 cells assessed as inhibition of cell proliferation incubated for 72 hrs by MTT assay. Type of series: functional, cell-based. The following applies: HGC-27, 72 h.
The test system of the next series is 4T1. In words: Anticancer activity against mouse 4T1 cells assessed as inhibition of cell proliferation incubated for 72 hrs by MTT assay. In kind it is functional, cell-based. The following applies: 4T1, 72 h. For orientation: Tetrazolium assays rely on reduction of a dye to a coloured formazan, in cell work by metabolically active cells.
The subject of a further series is NCI-H460. In words: cells. The following applies: Homo sapiens, NCI-H460, 72 h.
The next series relates to HeLa. Put plainly: Anticancer activity against human HeLa cells assessed as inhibition of cell proliferation incubated for 72 hrs by MTT assay. In kind it is functional, cell-based.
Another series relates to MCF7. Put plainly: Anticancer activity against human MCF7 cells assessed as inhibition of cell proliferation incubated for 72 hrs by MTT assay. In kind it is functional, cell-based. The following applies: MCF7, 72 h.
Series [3] is described as follows: Cytotoxicity against human L02 cells assessed as inhibition of cell proliferation incubated for 72 hrs by MTT assay. Type of series: toxicity, cell-based.
The next series has as its system NCI-H1975. Put plainly: cells. The following applies: Homo sapiens, NCI-H1975, 72 h.
Series [4] is described as follows: Cytotoxicity against H9c2 cells assessed as inhibition of cell proliferation incubated for 72 hrs by MTT assay. The following applies: rat. Type of series: toxicity, cell-based.
The next series deals with HCT-116. Put plainly: Anticancer activity against human HCT-116 cells assessed as inhibition of cell proliferation incubated for 72 hrs by MTT assay. Type of series: functional, cell-based. The following applies: HCT-116, 72 h.
The subject of a further series is HepG2. In words: Anticancer activity against human HepG2 cells assessed as inhibition of cell proliferation incubated for 72 hrs by MTT assay. Type of series: functional, cell-based. The following applies: HepG2, 72 h.
For another series, the system named is HONE1 cell line. Put plainly: Anticancer activity against human HONE1 cell line assessed as inhibition of cell proliferation incubated for 72 hrs by MTT assay. The following applies: HONE1, 72 h. Type of series: functional, cell-based.
A further series has as its system PC-3. Put plainly: cells. The following applies: Homo sapiens, PC-3, 72 h.
The next series has as its system DU-145. Put plainly: cells. The following applies: Homo sapiens, DU-145, 72 h.
For the next series, the system named is HCC827. In words: cells. The following applies: Homo sapiens, HCC827, 72 h.
Series [5] in a line: Cytotoxicity against human GES1 cells assessed as inhibition of cell proliferation incubated for 72 hrs by MTT assay. In kind it is toxicity, cell-based.
Another series relates to C6661. Put plainly: Anticancer activity against human C666-1 cells assessed as inhibition of cell proliferation incubated for 72 hrs by MTT assay. Type of series: functional, cell-based. The following applies: C6661, 72 h.
For another series, the system named is CWR22R. Put plainly: cells. The following applies: Homo sapiens, 22Rv1, 72 h.
The test system of a further series is MGC-803. Put plainly: Anticancer activity against human MGC-803 cells assessed as inhibition of cell proliferation incubated for 72 hrs by MTT assay. In kind it is functional, cell-based. The following applies: MGC-803, 72 h.
In the next series the test system is MDA-MB-231. In words: Anticancer activity against human MDA-MB-231 cells assessed as inhibition of cell proliferation incubated for 72 hrs by MTT assay. In kind it is functional, cell-based. The following applies: MDA-MB-231, 72 h.
The target in series [6] is Tyrosine-protein kinase BTK (Homo sapiens, UniProt Q06187). Put plainly: Inhibition of BTK (unknown origin).
Tyrosine-protein kinase BTK, sequence (Q06187 whole entry): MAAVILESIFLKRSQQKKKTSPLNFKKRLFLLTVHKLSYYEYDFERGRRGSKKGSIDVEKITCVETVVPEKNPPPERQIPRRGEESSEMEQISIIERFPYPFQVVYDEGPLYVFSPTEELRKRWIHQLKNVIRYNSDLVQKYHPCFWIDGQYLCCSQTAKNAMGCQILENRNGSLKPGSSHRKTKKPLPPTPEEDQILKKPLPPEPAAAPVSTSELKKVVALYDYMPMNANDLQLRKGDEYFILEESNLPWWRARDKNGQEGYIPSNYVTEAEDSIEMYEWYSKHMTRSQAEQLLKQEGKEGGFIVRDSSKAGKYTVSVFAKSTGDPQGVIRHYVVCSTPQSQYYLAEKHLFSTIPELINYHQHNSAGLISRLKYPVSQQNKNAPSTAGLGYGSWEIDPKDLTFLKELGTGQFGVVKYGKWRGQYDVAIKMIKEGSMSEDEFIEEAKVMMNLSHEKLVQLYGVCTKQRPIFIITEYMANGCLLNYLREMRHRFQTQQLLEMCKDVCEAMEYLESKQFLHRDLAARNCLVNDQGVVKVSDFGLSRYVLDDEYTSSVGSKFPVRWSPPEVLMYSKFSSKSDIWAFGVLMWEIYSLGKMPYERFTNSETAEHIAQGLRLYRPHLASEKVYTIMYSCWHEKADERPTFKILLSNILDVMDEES
The test system of series [7] is HGC-27. Put plainly: Antitumor activity against human HGC-27 cells xenografted in female BALB/c nude mouse model assessed as reduction in tumor growth at 15 mg/kg/day, ip administered for 21 days relative to control. In kind it is functional. Further details: scale not given: the % may be the effect or the level left. The following applies: time 21 day. A general note: A xenograft is tissue or cells of one species grown in another, often human tumour cells in immunodeficient mice.

The subject of series [8] is HGC-27. In words: Antitumor activity against human HGC-27 cells xenografted in female BALB/c nude mouse model assessed as reduction in tumor weight at 15 mg/kg/day, ip administered for 21 days. The following applies: time 21.0 day. In kind it is functional, organism-based.

Calls of active or inactive are those of the source. The rule behind the calls is not given here.

Description for A549: Anticancer activity against human A549 cells assessed as inhibition of cell proliferation incubated for 72 hrs by MTT assay
Description for CWR22R: Anticancer activity against human 22Rv1 cells assessed as inhibition of cell proliferation incubated for 72 hrs by MTT assay
Description for DU-145: Anticancer activity against human DU-145 cells assessed as inhibition of cell proliferation incubated for 72 hrs by MTT assay
Description for HCC827: Anticancer activity against human HCC827 cells assessed as inhibition of cell proliferation incubated for 72 hrs by MTT assay
Description for NCI-H1975: Anticancer activity against human NCI-H1975 cells assessed as inhibition of cell proliferation incubated for 72 hrs by MTT assay
Description for NCI-H460: Anticancer activity against human NCI-H460 cells assessed as inhibition of cell proliferation incubated for 72 hrs by MTT assay
Description for PC-3: Anticancer activity against human PC-3 cells assessed as inhibition of cell proliferation incubated for 72 hrs by MTT assay
Description for PC-9: Anticancer activity against human PC-9 cells assessed as inhibition of cell proliferation incubated for 72 hrs by MTT assay

Turning to `C=CS(=O)(=O)N1CCC[C@@H](Nc2nc(N)nc(Nc3cccc(OCc4ccccc4)c3)n2)C1`, the IC50 in the series on PC-9 is 21.9 µM; in the series on AGS, 9.2 µM; in the series on A549 it was 25 µM; in the series on HGC-27 [2], 15.6 µM; in the series with 4T1 it was 17.5 µM; in the series on NCI-H460 it was 14.3 µM. For the same compound, the IC50 with HeLa was 14.5 µM; in the series on MCF7 it was 18.4 µM; in the series on NCI-H1975 it was 4.3 µM; with HCT-116 it was 19.6 µM; in the series on HepG2, more than 32 µM; in the series on HONE1 cell line, 14 µM. The IC50 in the series on PC-3 amounted to 18.6 µM; in the series on DU-145 it was 9.7 µM; in the series on HCC827, 3 µM; in the series with C6661 it was 18.9 µM; with CWR22R it was 23.7 µM; with MGC-803, 13.4 µM. For the same compound, the IC50 in the series on MDA-MB-231 came out at 12.1 µM. Moreover, the IC50 at 72 h in series [1] is more than 32 µM; in [3] it was more than 32 µM; in series [4] it was more than 32 µM; in series [5] it was 13.9 µM.
Consider `C=CS(=O)(=O)N1CCC[C@@H](Nc2nc(N)nc(Nc3ccc(OCc4ccccc4)cc3)n2)C1`, for which the IC50 in the series on PC-9 was more than 32 µM; with A549, more than 32 µM; in the series on NCI-H460, more than 32 µM; with NCI-H1975, more than 32 µM; with PC-3, more than 32 µM; in the series on DU-145 it was 19 µM. In addition, the IC50 in the series with HCC827 and in the series with CWR22R was more than 32 µM throughout.
Take `C=CS(=O)(=O)N1CC[C@@H](Nc2nc(N)nc(Nc3ccc(Oc4ccccc4)cc3)n2)C1`: the 50% inhibitory concentration (IC50) in the series with PC-9 was more than 32 µM; with A549, more than 32 µM; with NCI-H460, more than 32 µM; in the series with NCI-H1975 it was more than 32 µM; with PC-3, more than 32 µM; with DU-145 it was 22.4 µM. Besides, the IC50 in the series with HCC827 was 12.6 µM; in the series with CWR22R, more than 32 µM.
Consider `Cn1cc(Nc2nc(N)nc(-c3cccc(-n4ccc5cc(C6CC6)ccc5c4=O)c3CO)n2)cn1`, for which, in [6], 0.0042 µM corresponded to half-maximal inhibition (IC50).
For the compound `C=CS(=O)(=O)N1CCC[C@@H](Nc2nc(N)nc(Nc3ccc(Oc4ccccc4)cc3)n2)C1`, the IC50 was more than 32 µM in the series on PC-9; more than 32 µM in the series with A549; more than 32 µM in the series on NCI-H460; 29.8 µM with NCI-H1975; more than 32 µM in the series with PC-3; more than 32 µM with DU-145. Moreover, the IC50 is 5.2 µM in the series on HCC827 and more than 32 µM with CWR22R.
`C=CS(=O)(=O)N1CCC(CNc2nc(N)nc(Nc3ccc(Oc4ccccc4)cc3)n2)CC1`: the IC50 in the series with PC-9, with A549, in the series on NCI-H460, in the series with NCI-H1975, in the series on PC-3 and in the series with DU-145 was more than 32 µM in each case. For the same compound, the IC50 is 29.3 µM in the series on HCC827 and more than 32 µM in the series on CWR22R.
Turning to `C=CC(=O)N1CCC[C@@H](n2nc(-c3ccc(Oc4ccccc4)cc3)c3c(N)ncnc32)C1` [IBRUTINIB], the IC50 came out at 3.1 µM in the series on PC-9; 10.4 µM with AGS; 17.6 µM in the series on A549; 16 µM with HGC-27 [2]; 9.3 µM in the series on 4T1; 12.7 µM with NCI-H460. The IC50 in the series on HeLa was 28.1 µM; in the series with MCF7, 29.9 µM; in the series on NCI-H1975, 5.6 µM; in the series on HCT-116, 17.7 µM; with HepG2, more than 32 µM; in the series on HONE1 cell line it was 24.5 µM. Also, the IC50 in the series on PC-3 turned out to be 21.1 µM; in the series with DU-145, 5.3 µM; in the series on HCC827 it was 0.1 µM; with C6661 it was 17 µM; with CWR22R, 26.7 µM; in the series with MGC-803, 9.2 µM. Besides, in the series on MDA-MB-231, the half-maximal inhibitory concentration (IC50) was determined as 28.9 µM. In addition, the IC50 at 72 h in series [1] is more than 32 µM; in series [3] it was more than 32 µM; in [4], more than 32 µM; in series [5] it was 28.6 µM. Besides, in the series with HGC-27 [7], the Activity turned out to be 17.03%. Moreover, the result in the series with HGC-27 [8] was Active.
